Experimental findings from ChEMBL document CHEMBL1150176, “Majorenolide and majorynolide: a new pair of cytotoxic and pesticidal alkene-alkyne delta-lactones from Persea major” (J Nat Prod, 1989) are described below.

The subject of data set [1] is Tetranychus urticae. Briefly: Pesticidal activity against two spotted spider mite at 400 ppm. The data set is classed as functional.
For data set [2], the system named is Spodoptera eridania. Briefly: Pesticidal activity against southern armyworm at 5000 ppm. The data set is classed as functional, organism-based.
Data set [3] deals with Aphis gossypii. Briefly: Pesticidal activity against melon aphid at 10 ppm. The data set is classed as functional.
The subject of data set [4] is Culicidae. Briefly: Pesticidal activity against mosquito larvae at 10 ppm. The format is functional.
Data set [5] deals with Calliphoridae. Briefly: Pesticidal activity against blowfly. The format is functional.
The test system of data set [6] is MCF7. The experiment in a line: Cytotoxicity against human MCF7 cells. The format is functional. The note with it: read-out: ED50 (the source's name).
In data set [7] the test system is Agrobacterium tumefaciens. Briefly: Antitumor activity against Agrobacterium tumefaciens-induced crown gall tumors in potato tuber by potato disk test. The data set is classed as functional.
In data set [8] the test system is Diabrotica undecimpunctata. The experiment in a line: Pesticidal activity against southern corn rootworm at 300 ppm. The data set is classed as functional, organism-based. The note with it: howardi.
Data set [9] has as its system A549. The experiment in a line: Cytotoxicity against human A549 cells. The format is functional. The following applies: read-out: ED50 (the source's name).
The test system of data set [10] is Artemia. The experiment in a line: Toxicity against brine shrimp. The following applies: in vivo. The data set is classed as organism-based.
The subject of data set [11] is HT-29. Briefly: Cytotoxicity against human HT-29 cells. The data set is classed as functional. The following applies: read-out: ED50 (the source's name).
Data set [12] deals with Haemonchus contortus. The experiment in a line: Nematicidal activity against Haemonchus contortus. The data set is classed as functional.
For data set [13], the system named is Aphis gossypii. The experiment in a line: Pesticidal activity against melon aphid at 400 ppm. The format is functional.

≈ marks a conversion by molar mass, not a printed value. Calls of active or inactive are those of the source. The rule behind the calls is not given here.

In general, LC50 refers to the concentration that kills 50% of the test population. In the case of `C=CCCCCCCCCC/C=C1\CC(CO)OC1=O` (centres undefined) [MAJORENOLIDE], the Activity turned out to be 0% in [1]; 80% in data set [3]; 20% in data set [4]; 1% in [5]; 0.1% in data set [12]. Besides, the result in [2] and in [8] was inactive. The figures for the EC50 in [6], in [9] and in [11] were 2.58 µg/mL (≈ 9.2 µM), 1.7 µg/mL (≈ 6.06 µM) and 2.61 µg/mL (≈ 9.31 µM), respectively. Also, the “inhibition (INH)” value in data set [7] was 86%. For the same molecule, in data set [10], the LC50 came to 0.36 ppm.
Consider `C#CCCCCCCCCC/C=C1\CC(CO)OC1=O` (centres undefined) [MAJORYNOLIDE], for which the Activity is 0% in data set [1]; 0% in data set [4]; 1% in data set [5]; 0% in data set [13]; 0.1% in data set [12]. Also, the outcome in data set [2] and in data set [8] was inactive. Further, the values for the EC50 in data set [6], in data set [9] and in data set [11] were 9.56 µg/mL (≈ 34.3 µM), 4.64 µg/mL (≈ 16.7 µM) and 13.8 µg/mL (≈ 49.6 µM), respectively. The “inhibition (INH)” value in [7] came to 46%. In data set [10], this molecule had an LC50 of 0.89 ppm.
